Measured values taken from patent US20260125379A1, “PRODRUG OF JAK KINASE INHIBITOR” (E-nitiate Biopharmaceuticals (Hangzhou) Co., Ltd, priority 2022, published 2026).
Like-named read-outs stand apart in the source and are kept apart here.

Columns and labels:
JAK1 = JAK1 (Homo sapiens, UniProt P23458); test: JAK1 kinase inhibition assay (ULight-JAK-1 substrate, Eu-labeled anti-phosphotyrosine antibody); assay type: biochemical; conditions: JAK1 10 nM, substrate 50 nM, ATP 40 μM, 2 hours at room temperature
Procedure: (§1) Example A: Activity Detection of JAK Kinase Small Molecule Inhibitors
(§2) Kinase reaction buffer was prepared with the following components: 50 mM HEPES, pH 7.5, 1 mM EGTA, 10 mM MgCl2, 2 mM DTT, 0.01% Tween20.
(§3) Detection buffer was prepared by diluting 10× detection buffer to IX with deionized water in a ratio of 9:1.
(§4) JAK kinase was diluted with kinase reaction buffer to 4× final concentration (JAK1: 40 nM, JAK2: 0.5 nM).
(§5) ULight™-JAK-1 (Tyr1023) substrate was diluted with kinase reaction buffer to 200 nM (final concentration: 50 nM).
(§6) ATP was diluted with kinase reaction buffer to 4× final concentration (JAK1: 160 μM, JAK2: 40 μM).
(§7) Compound to be tested was dissolved with DMSO to obtain a 10 mM storage solution, which was diluted to desired concentrations by a 3-fold gradient; for each compound 10 concentration points were set, and the final concentration of the compound to be tested ranges from 10 μM to 0.5 nM.
(§8) EDTA was dissolved with 1× detection buffer to 40 mM (EDTA final concentration: 10 mM).
(§9) Eu-labeled detection antibody (anti-phosphotyrosine (PT66)) was diluted with 1× detection buffer to 8 nM (final antibody concentration: 2 nM).
(§10) (1) To a 384-well plate, 2.5 μL 4× kinase solution and 2.5 μL 4× test compound solution with different concentrations that have been diluted were added successively, each concentration was set in duplicate, and an enzyme solution blank control and a negative control (DMSO group) were also set.
(§11) (2) The 384-well plate was shaken to mix enzyme and compound well, and then centrifuged at 1000 rpm for 1 minute, and incubated at room temperature for 60 minutes.
(§12) (3) 2.5 μL 4× substrate solution was added to the 384-well plate and centrifuged at 1000 rpm for 1 minute.
(§13) (4) 2.5 μL 4× ATP solution was added to the 384-well plate and centrifuged at 1000 rpm for 1 minute, and then enzyme reaction was initiated.
(§14) (5) For JAK1 the reaction was carried out at room temperature for 2 hours, and for JAK2 the reaction was carried out at room temperature for 1 hour.
(6) For the JAK1 reaction, the final concentrations of components are as follows: JAK1: 10 nM, substrate: 50 nM, ATP: 40 μM; and the final concentration of the tested compounds ranges from 10μ M to 0.5 nM.
(§15) (7) After the enzyme reaction was completed, 5 μL 4× enzyme reaction termination solution was added to each well of the 384-well plate, and then centrifuged at 1000 rpm for 1 minute and incubated at room temperature for 5 minutes.
(§16) (8) 5 μL 4× detection antibody solution (the final concentration of detection antibody is 2 nM) was added to each well of the 384-well plate, and then centrifuged at 1000 rpm for 1 minute and incubated at room temperature for 1 hour.
(§17) (9) At the antibody incubation was completed, signal value of each well was measured on a Envision plate reader.
(§18) (1) The percentage inhibition rate corresponding to each concentration of the tested compound was calculated on the basis that the blank control of enzyme solution corresponds to 100% and the negative control (DMSO group) corresponds to 0%.
(§19) (2) A nonlinear regression analysis of the logarithm of the concentration of the detected compound and the corresponding percentage inhibition rate was performed in GraphPad Prism software to obtain the half-inhibiting concentration (IC50) of the tested compound.

JAK2 = JAK2 (Homo sapiens, UniProt O60674); test: JAK2 kinase inhibition assay (ULight-JAK-1 substrate, Eu-labeled anti-phosphotyrosine antibody); assay type: biochemical; conditions: JAK2 0.125 nM, substrate 50 nM, ATP 10 μM, 1 hour at room temperature
Procedure: as §1, §2, §3, §4, §5, §6, §7, §8, §9, §10, §11, §12, §13, §14
For the JAK2 reaction, the final concentrations of component are as follows: JAK2: 0.125 nM, substrate: 50 nM, ATP: 10 μM; and the final concentration of the tested compound ranges from 10 μM to 0.5 nM.
as §15, §16, §17, §18, §19

[1] = Fecal excretion (cumulative recovery) in rats after single gavage; assay type: in vivo; conditions: feces, SD rats
Procedure: (§20) Compounds A1, A2, A3, B3, B6 and B3 were administered once to SD rats by gavage. The concentrations of medicaments and metabolites thereof in plasma were collected and measured at different time points, and the pharmacokinetic parameters of each compound were calculated to study the pharmacokinetic characteristics of the compounds in plasma of SD rats. Fecal samples at 8 and 24 hours were collected simultaneously, and the concentrations of prodrugs and degraded products were detected to investigate the excretion recovery rate.
(§21) Rats were grouped in groups of 3, and all SD rats were fasted overnight (12 hours or more) the day before the experiment. On the day of the experiment, after weighing the body weight, the rats were administrated once with compound A1, A2, A3, B3, B6, and B3 by gavage respectively. SD rats were able to resume eating 4 hours after administration and were able to drink freely during the experiment. 0.20 mL of blood was collected from the jugular vein before administration and at 0.5, 1, 2, 4, 8, 12, and 24 hours after administration, respectively, and was placed in EDTA-K2 anticoagulation tube. All whole blood samples were centrifuged at 1500 g to 1600 g for 10 minutes within half an hour after collection to separate plasma, which was stored in a refrigerator at a temperature of between −90° C. and −60° C. for sample analysis. All the feces from the metabolic cage chassis were collected at 24 h after administration and weighed accurately. The required volume of homogenate liquid (aqueous solution containing 20% methanol) was added at a weight/volume ratio of 1:10, and the resultant was homogenized and analyzed.

[2] = Plasma pharmacokinetics in rats after single gavage; assay type: in vivo; conditions: SD rats; for presence of the prodrug in plasma (in words): after gavage of the prodrug itself; for Cmax (ng · mL^−1) / AUC0-t / Cmax / Tmax: plasma
Procedure: as §20, §21

[3] = Pharmacokinetics in rats in vivo: A13 in plasma and colon tissue after equimolar A3 or A13; conditions: SD rats, A3 30 mg/kg vs A13 15 mg/kg (equal molar) by gavage, FIG. 1
Procedure: Compounds A3 and A13 were administered once to SD rats by gavage in an equal molar amount relative to the body weight of rats. The concentration of the medicaments and metabolites thereof in plasma and colon tissues were collected and measured at different time points, and the pharmacokinetic parameters of the compounds were calculated to compare the pharmacokinetic characteristics of the prodrug and the active metabolite in SD rats in vivo.
Rats were grouped in groups of 27, and all SD rats were fasted overnight (12 hours or more) the day before the experiment. On the day of the experiment, after weighing the body weight, the compounds A3 (30 mg/kg) and A13 (15 mg/kg) were administered once by gavage respectively. SD rats were able to resume eating after 4 hours of administration and were able to drink freely during the experiment. Plasma and colonic tissue were collected at 0.5, 1, 2, 4, 6, 8, 12, 24 and 48 hours after the administration to detect the concentration of A13 in the plasma and colon tissue homogenate liquid.

[4] = administration group Compound A1 50 mg/kg by gavage
[5] = administration group Compound A2 50 mg/kg by gavage
[6] = administration group Compound A3 40 mg/kg by gavage
[7] = administration group Compound B3 33 mg/kg (equimolar with B6) by gavage
[8] = administration group Compound B6 50 mg/kg by gavage
[9] = rat, po, administration group Compound B6 50 mg/kg by gavage, read-out: Cmax
[10] = rat, po, administration group Compound B6 50 mg/kg by gavage, read-out: Tmax

Chain of JAK1 (P23458 whole entry, species assumed): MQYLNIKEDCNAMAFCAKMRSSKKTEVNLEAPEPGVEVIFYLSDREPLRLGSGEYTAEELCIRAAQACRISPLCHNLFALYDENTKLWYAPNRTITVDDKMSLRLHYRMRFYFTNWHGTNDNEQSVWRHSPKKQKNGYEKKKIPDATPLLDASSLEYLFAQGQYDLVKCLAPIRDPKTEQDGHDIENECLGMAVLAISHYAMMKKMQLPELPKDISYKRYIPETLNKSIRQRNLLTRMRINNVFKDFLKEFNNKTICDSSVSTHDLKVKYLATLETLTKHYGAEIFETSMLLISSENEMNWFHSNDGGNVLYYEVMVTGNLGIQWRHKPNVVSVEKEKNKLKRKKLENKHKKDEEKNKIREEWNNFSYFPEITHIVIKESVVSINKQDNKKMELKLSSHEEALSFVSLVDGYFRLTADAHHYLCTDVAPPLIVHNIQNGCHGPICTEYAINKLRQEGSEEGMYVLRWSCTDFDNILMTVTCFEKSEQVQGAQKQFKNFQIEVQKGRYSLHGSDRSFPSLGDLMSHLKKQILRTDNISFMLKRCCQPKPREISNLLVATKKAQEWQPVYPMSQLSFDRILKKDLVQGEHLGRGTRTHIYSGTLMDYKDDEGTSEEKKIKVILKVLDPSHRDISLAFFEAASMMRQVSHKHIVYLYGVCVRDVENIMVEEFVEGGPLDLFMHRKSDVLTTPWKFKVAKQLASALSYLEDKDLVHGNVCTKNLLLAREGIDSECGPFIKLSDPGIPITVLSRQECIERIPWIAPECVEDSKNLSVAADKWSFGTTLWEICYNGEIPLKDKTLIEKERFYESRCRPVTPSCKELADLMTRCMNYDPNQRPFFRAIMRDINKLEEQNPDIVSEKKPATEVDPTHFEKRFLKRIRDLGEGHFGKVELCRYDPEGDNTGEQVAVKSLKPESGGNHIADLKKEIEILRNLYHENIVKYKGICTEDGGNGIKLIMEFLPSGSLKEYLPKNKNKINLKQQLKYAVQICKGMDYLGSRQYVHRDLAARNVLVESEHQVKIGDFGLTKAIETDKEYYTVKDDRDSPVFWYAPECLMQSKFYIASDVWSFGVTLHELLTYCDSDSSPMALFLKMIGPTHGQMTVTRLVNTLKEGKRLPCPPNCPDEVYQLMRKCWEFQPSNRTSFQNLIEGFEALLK
Chain of JAK2 (O60674 whole entry, species assumed): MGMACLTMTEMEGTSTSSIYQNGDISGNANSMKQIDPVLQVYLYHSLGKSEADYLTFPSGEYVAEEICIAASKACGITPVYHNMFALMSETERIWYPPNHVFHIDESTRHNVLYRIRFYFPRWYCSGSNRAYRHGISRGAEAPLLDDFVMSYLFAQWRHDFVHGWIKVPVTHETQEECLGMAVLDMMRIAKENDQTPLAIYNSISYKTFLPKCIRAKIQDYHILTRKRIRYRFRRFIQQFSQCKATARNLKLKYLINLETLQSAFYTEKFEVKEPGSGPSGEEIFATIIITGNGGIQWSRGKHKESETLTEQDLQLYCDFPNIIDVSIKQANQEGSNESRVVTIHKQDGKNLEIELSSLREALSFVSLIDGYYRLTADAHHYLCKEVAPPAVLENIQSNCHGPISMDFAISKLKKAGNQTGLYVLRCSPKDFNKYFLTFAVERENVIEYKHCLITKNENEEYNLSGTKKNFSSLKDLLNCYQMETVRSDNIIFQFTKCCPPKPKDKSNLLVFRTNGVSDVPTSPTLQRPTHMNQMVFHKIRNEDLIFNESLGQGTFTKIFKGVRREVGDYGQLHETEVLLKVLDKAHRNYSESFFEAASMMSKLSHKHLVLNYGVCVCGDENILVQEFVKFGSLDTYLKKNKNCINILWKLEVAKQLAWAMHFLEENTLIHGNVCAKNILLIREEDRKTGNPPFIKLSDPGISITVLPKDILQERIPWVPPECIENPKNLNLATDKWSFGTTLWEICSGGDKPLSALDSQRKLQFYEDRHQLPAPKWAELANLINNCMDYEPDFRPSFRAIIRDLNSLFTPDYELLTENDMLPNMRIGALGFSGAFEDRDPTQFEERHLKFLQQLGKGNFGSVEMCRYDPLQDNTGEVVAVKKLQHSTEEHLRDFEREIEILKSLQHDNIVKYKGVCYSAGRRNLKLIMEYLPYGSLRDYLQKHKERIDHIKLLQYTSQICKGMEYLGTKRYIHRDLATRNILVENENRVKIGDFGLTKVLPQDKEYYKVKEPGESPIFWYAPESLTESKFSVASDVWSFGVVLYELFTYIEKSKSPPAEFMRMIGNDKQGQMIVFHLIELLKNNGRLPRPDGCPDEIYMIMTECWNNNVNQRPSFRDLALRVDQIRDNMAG

Row | IC50 (JAK1) [nM] | IC50 (JAK2) [nM] | Cumulative recovery rate at 24 h (%) [1, 4] [%] | presence of the prodrug in plasma (in words) [2] | Cumulative recovery rate at 24 h (%) [1, 5] [%] | Cumulative recovery rate at 24 h (%) [1, 6] [%] | AUC0-t [2, 6] [ng·h/g] | Cumulative recovery rate at 24 h (%) [1, 8] [%] | Cmax [2, 9] [ng/mL] | Tmax [2, 10] [h] | SMILES | also measured
1 | 0.04 | 0.37 | – | – | – | – | – | 82.1 | 4.8 | 12 | N#CC[C@H]1CC[C@H](n2c(N)nc3cnc4[nH]ccc4c32)CC1 [Compound B3, 2-((1R,4R)-4-(2-aminoimidazo[4,5-d]pyrrolo[2,3-b]pyridin-1(6H)-ethyl)cyclohexyl)acetonitrile] | Cumulative recovery rate at 24 h (%) [1, 7]: 71.2%; AUC0-t [2, 7]: 324 ng·h/g; AUC0-t [2, 8]: 69.1 ng·h/g; Cmax ([2]; rat, po, administration group Compound B3 33 mg/kg (equimolar with B6) by gavage, read-out: Cmax): 126 ng/mL; Tmax ([2]; rat, po, administration group Compound B3 33 mg/kg (equimolar with B6) by gavage, read-out: Tmax): 1.2 h
2 | 0.45 | 0.81 | – | absent or rarely present in plasma | – | – | – | 5.1 | 0.7 | 4 | N#CC[C@H]1CC[C@H](n2c(/N=N/c3ccc(O)c(C(=O)O)c3)nc3cnc4[nH]ccc4c32)CC1 [Compound B6, 5-((E)-(1-((1R,4R)-4-(cyanomethyl)cyclohexyl)-1,6-dihydroimidazo[4,5-d]pyrrolo[2,3-b]pyridin-2-yl)diazenyl)-2-hydroxybenzoic acid] | blood system absorption (AUC0-t) of the active metabolite B3 after prodrug B6 compared with direct oral equimolar B3 ([2]; B6 50 mg/kg vs B3 33 mg/kg by gavage): significant reduction

The remaining lines, values behind:

Row | SMILES | IC50 (JAK1) [nM] | IC50 (JAK2) [nM] | Cumulative recovery rate at 24 h (%) [1, 4] [%] | presence of the prodrug in plasma (in words) [2] | Cumulative recovery rate at 24 h (%) [1, 5] [%] | Cumulative recovery rate at 24 h (%) [1, 6] [%] | AUC0-t [2, 6] [ng·h/g] | Cumulative recovery rate at 24 h (%) [1, 8] [%] | Cmax [2, 9] [ng/mL] | Tmax [2, 10] [h] | also measured
3 | C[C@@H](OC(=O)CCc1ccccc1/N=N/c1ccc(O)c(C(=O)O)c1)c1nc2cnc3[nH]ccc3c2n1N1CCC(CC#N)CC1 [Compound A1, (R,E)-5-((2-(3-(1-(1-(4-(cyanomethyl)piperidin-1-yl)-1,6-dihydroimidazo[4,5-d]pyrrolo[2,3-b]pyridin-2-yl)ethoxy)-3-oxopropyl)phenyl)diazenyl)-2-hydroxybenzoic acid] | 133 | 536 | 83 | absent or rarely present in plasma | – | – | – | – | – | – | Cmax (ng · mL^−1) [2, 4]: BLOQ
4 | C[C@@H](OC(=O)OCc1ccc(/N=N/c2ccc(O)c(C(=O)O)c2)cc1)c1nc2cnc3[nH]ccc3c2n1N1CCC(CC#N)CC1 [Compound A2, (R,E)-5-((4-((((1-(1-(4-cyanomethylpiperidin-1-yl)-1,6-dihydroimidazo[4,5-d]pyrrolo[2,3-b]pyridin-2-yl)ethoxy)carbonyl)oxy)methyl)phenyl)diazenyl)-2-hydroxybenzoic acid] | 5.94 | 27 | – | absent or rarely present in plasma | 7.2 | – | – | – | – | – | Cmax (ng · mL^−1) [2, 5]: BLOQ
5 | C[C@@H](OC(=O)C(C)(C)Oc1ccccc1/N=N/c1ccc(O)c(C(=O)O)c1)c1nc2cnc3[nH]ccc3c2n1N1CCC(CC#N)CC1 [Compound A3, (R,E)-5-((2-((1-(1-(1-(4-cyanomethylpiperidin-1-yl)-1,6-dihydroimidazo[4,5-d]pyrrolo[2,3-b]pyridin-2-yl)ethoxy)-2-methyl-1-oxopropan-2-yl)oxy)phenyl)diazenyl)-2-hydroxybenzoic acid] | 7.04 | 102 | – | absent or rarely present in plasma | – | 0.78 | 8.92 | – | – | – | Cmax ([2]; rat, po, administration group Compound A3 40 mg/kg by gavage, read-out: Cmax): 2.08 ng/mL; Tmax ([2]; rat, po, administration group Compound A3 40 mg/kg by gavage, read-out: Tmax): 4 h; amount (AUC) of active metabolite A13 in the colonic tissue after prodrug A3 compared with compound A13 ([3]; colon tissue 0.5-48 hours): more in the colonic tissue; amount (AUC) of active metabolite A13 in the blood after prodrug A3 compared with compound A13 ([3]; plasma 0.5-48 hours): less in the blood
6 | C[C@@H](O)c1nc2cnc3[nH]ccc3c2n1N1CCC(CC#N)CC1 [Compound A13, (R)-2-(1-(2-(1-(hydroxyethyl))imidazo[4,5-d]pyrrolo[2,3-b]pyridin-1(6H)-yl)piperidin-4-yl)acetonitrile] | – | – | 11.6 | – | 24.8 | 34.3 | 836 | – | – | – | Cmax [2, 4]: 9.1 ng/mL; Tmax [2, 4]: 12 h; AUC0-t [2, 5]: 972 ng·h/g; Cmax [2, 5]: 80.6 ng/mL; Tmax [2, 5]: 4 h; Cmax [2, 6]: 69.9 ng/mL; Tmax [2, 6]: 12 h
